Data set [1] has as its system TNBS-induced Colits in the rat. Nature of the data set: TNBS-induced colitis in the rat, intrarectal administration. It counts as in vivo. The settings on record: for max Colon width: lowest dose that impacts the parameter to a relevant extent (inhibition of the TNBS-induced increase): TNBS 30 mg/kg rectally, compound intrarectal twice daily days -1 to +2, sacrificed day 2; for Thymus weight: lowest dose that impacts the parameter to a relevant extent (amplification of the TNBS-induced decrease) / Weight of adrenal glands: lowest dose that impacts the parameter to a relevant extent (inhibition of the TNBS-induced increase): TNBS colitis, intrarectal twice daily, side effect parameter. As for the experimental part:
As an animal model of Inflammatory Bowel Disease, the TNBS-induced Colits in the rat had been used.
48 h fasted rats (220-250 g b.w.) received rectally 0,9 ml of a solution consisting of 30% ethanol, 30 mg/kg TNBS (Trinitrobenzoesulfonic acid) in an oral distance of 8-9 cm from the anus. Compound administration days −1 to +2. Animals were sacrified on day 2. For intrarectal administration the compounds were solved in 1% ethanol, 10% Propyleneglycol and 20% Cyclodextrin. The used range of concentrations was identical for all compounds. Intrarectal administration schedule: twice daily. Compounds used: Ciclesonide and for comparison, Budesonide and Dexamethasone.
As parameters for the estimation of the pharmacological effects of the compounds, max. colon width had been used. As for the estimation of potential side effects, the weights of thymus and adrenal glands have been registrated.
The efficacy of a treatment was calculated on the reference of controls that received either no TNBS or TNBS rectally, establishing the range of 100 to 0% inhibition, respectively, in the drug screening.

For data set [2] the following is noted: human; cited from earlier work.

SMILES strings stand for the structures.

In the case of `CCCC1O[C@@H]2C[C@H]3[C@@H]4CCC5=CC(=O)C=C[C@]5(C)[C@H]4[C@@H](O)C[C@]3(C)[C@]2(C(=O)CO)O1` (stereo partly shown) [Budesonide], the “max Colon width: lowest dose that impacts the parameter to a relevant extent (inhibition of the TNBS-induced increase)” value in data set [1] was 2.3-6.9 μmol/animal. In addition, in data set [1] (highest assessed dose 6.9), the “Thymus weight: lowest dose that impacts the parameter to a relevant extent (amplification of the TNBS-induced decrease)” value amounted to 2.3 μmol/animal and the “Weight of adrenal glands: lowest dose that impacts the parameter to a relevant extent (inhibition of the TNBS-induced increase)” value is “n.e. @ 6.9 μmol/animal”. Also, in data set [1] (highest assessed dose 6.9, listed as budenoside), the “Weight of adrenal glands: lowest dose that impacts the parameter to a relevant extent (inhibition of the TNBS-induced increase)” value was “does not reverse”.
Turning to `CC(C)C(=O)OCC(=O)[C@@]12O[C@H](C3CCCCC3)O[C@@H]1C[C@H]1[C@@H]3CCC4=CC(=O)C=C[C@]4(C)[C@H]3[C@@H](O)C[C@@]12C` [Ciclesonide, [11β,16α(R)]-16,17-[(cyclohexylmethylene)bis(oxy)]-11-hydroxy-21-(2-methyl-1-oxopropoxy)pregna-1,4-diene-3,20-dione], the Oral bioavailability result in data set [2] is “below 1%”. Further, in data set [1], the “max Colon width: lowest dose that impacts the parameter to a relevant extent (inhibition of the TNBS-induced increase)” value was found to be 2.3 μmol/animal. For the same compound, in data set [1] (highest assessed dose 6.9), the “Thymus weight: lowest dose that impacts the parameter to a relevant extent (amplification of the TNBS-induced decrease)” value was “n.e. @ 6.9 μmol/animal” and the “Weight of adrenal glands: lowest dose that impacts the parameter to a relevant extent (inhibition of the TNBS-induced increase)” value stood at 2.3 μmol/animal. For the same compound, the “Thymus weight: lowest dose that impacts the parameter to a relevant extent (amplification of the TNBS-induced decrease)” value in data set [1] (highest assessed dose 6.9, listed as ciclesonide) is reported as more than 6.9 μmol/animal.
On to `C[C@@H]1C[C@H]2[C@@H]3CCC4=CC(=O)C=C[C@]4(C)[C@@]3(F)[C@@H](O)C[C@]2(C)[C@@]1(O)C(=O)CO` [Dexamethasone], for which the “max Colon width: lowest dose that impacts the parameter to a relevant extent (inhibition of the TNBS-induced increase)” value in data set [1] came out at 0.69 μmol/animal.
